IC50 data for 21 compounds are collected here from patent publication US9770446B2, “Piperidine urea derivatives” (MERCK PATENT GMBH, priority 2013, dated 2017).

Test [1] addresses T1, GST-tagged Tankyrase-1 (1023-1327 aa) (Homo sapiens, UniProt O95271).
T1 construct: GST-tagged Tankyrase-1 (1023-1327 aa)
The test is described as follows: Tankyrase 1 autoparsylation HTRF enzyme assay. In kind it is biochemical. The conditions noted are these: read-out: IC50 TNKS1 enzyme assay. The procedure:
Biochemical activity testing of Tankyrase 1 and 2: Autoparsylation assay
The autoparsylation assay is run in two steps: the enzymatic reaction in which GST-tagged Tankyrase-1, resp Tankyrase-2 transferred biotinylated ADP-ribose to itself from biotinylated NAD as co-substrate and the detection reaction where a time resolved FRET between cryptate labelled anti-GST bound to the GST tag of the enzyme and Xlent® labelled-streptavidin bound the biotin-parsylation residue is analysed. The autoparsylation activity was detectable directly via the increase in HTRF signal.
The autoparsylation assay is performed as 384-well HTRF® (Cisbio, Codolet, France) assay format in Greiner low volume nb 384-well microtiter plates and is used for high throughput screen. 250 nM GST-tagged Tankyrase-1 (1023-1327 aa), respectively about 250 nM GST-tagged Tankyrase-2 (873-1166 aa) and 5 μM bio-NAD (Biolog, Life science Inst., Bremen, Germany) as co-substrate are incubated in a total volume of 5 μl (50 mM HEPES, 4 mM Mg-chloride, 0.05% Pluronic F-68, 1.4 mM DTT, 0.5% DMSO, pH 7.7) in the absence or presence of the test compound (10 dilution concentrations) for 90 min at 30° C. The reaction is stopped by the addition of 1 μl 50 mM EDTA solution. 2 μl of the detection solution (1.6 μM SA-Xlent® (Cisbio, Codolet, France), 7.4 nM Anti-GST-K® (Eu-labelled anti-GST, Cisbio, Codolet, France) in 50 mM HEPES, 800 mM KF, 0.1% BSA, 20 mM EDTA, 0.1% CHAPS, pH 7.0) are added. After 1 h incubation at room temperature the HTRF is measured with an Envision multimode reader (Perkin Elmer LAS Germany GmbH) at excitation wavelength 340 nm (laser mode) and emission wavelengths 615 nm and 665 nm. The ratio of the emission signals is determined. The full value used is the inhibitor-free reaction. The pharmacological zero value used is XAV-939 (Tocris) in a final concentration of 5 μM. The inhibitory values (IC50) are determined using either the program Symyx Assay Explorer® or Condosseo® from GeneData.
In general terms: Time-resolved FRET reads energy transfer from a long-lived donor to a nearby acceptor.

The target in another test is T2, His-tagged Parp-1 (Homo sapiens, UniProt P09874).
T2 construct: purchased Enzo Life Sciences GmbH, Lörrach, Germany
T2 sequence (P09874 whole entry): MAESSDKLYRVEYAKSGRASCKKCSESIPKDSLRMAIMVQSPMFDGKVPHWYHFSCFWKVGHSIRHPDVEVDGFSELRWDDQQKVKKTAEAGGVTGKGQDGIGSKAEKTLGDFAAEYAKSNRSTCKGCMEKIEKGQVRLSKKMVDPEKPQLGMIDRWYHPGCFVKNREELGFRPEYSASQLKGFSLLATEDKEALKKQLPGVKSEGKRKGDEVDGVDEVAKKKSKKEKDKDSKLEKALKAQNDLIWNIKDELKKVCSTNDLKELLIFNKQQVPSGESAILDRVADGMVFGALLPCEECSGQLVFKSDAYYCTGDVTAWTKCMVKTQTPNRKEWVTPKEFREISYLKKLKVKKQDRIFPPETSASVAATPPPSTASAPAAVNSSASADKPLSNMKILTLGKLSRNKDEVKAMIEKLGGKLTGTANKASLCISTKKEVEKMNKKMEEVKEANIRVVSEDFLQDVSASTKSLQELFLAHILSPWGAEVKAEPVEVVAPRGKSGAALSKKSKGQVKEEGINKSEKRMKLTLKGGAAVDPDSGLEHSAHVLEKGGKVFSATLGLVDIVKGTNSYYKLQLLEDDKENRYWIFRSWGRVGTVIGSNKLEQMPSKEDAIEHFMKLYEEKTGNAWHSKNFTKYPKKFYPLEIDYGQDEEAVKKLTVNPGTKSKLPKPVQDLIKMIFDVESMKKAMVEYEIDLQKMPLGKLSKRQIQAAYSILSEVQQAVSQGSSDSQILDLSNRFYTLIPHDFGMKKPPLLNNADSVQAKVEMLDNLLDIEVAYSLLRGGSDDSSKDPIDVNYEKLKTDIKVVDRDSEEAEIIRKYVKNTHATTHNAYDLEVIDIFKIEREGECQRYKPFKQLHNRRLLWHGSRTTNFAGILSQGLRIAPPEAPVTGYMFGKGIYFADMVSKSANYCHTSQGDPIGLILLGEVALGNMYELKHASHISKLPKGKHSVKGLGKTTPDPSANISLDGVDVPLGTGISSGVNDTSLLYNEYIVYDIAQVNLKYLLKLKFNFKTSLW
The test is described as follows: PARP-1 autoparsylation HTRF assay. In kind it is biochemical. The source says:
Description of the PARP1 Assay
Biochemical Activity Testing of PARP-1: Autoparsylation Assay
The autoparsylation assay is run in two steps: the enzymatic reaction in which His-tagged Parp-1 transfers biotinylated ADP-ribose/ADP-ribose to itself from biotinylated NAD/NAD as co-substrate and the detection reaction where a time resolved FRET between cryptate labelled anti-His antibody bound to the His tag of the enzyme and Xlent® labelled-streptavidin bound the biotin-parsylation residue is analysed. The autoparsylation activity is detectable directly via the increase in HTRF signal.
The autoparsylation assay is performed as 384-well HTRF® (Cisbio, Codolet, France) assay format in Greiner low volume nb 384-well microtiter plates. 35 nM His-tagged Parp-1 (human, recombinant, Enzo Life Sciences GmbH, Lörrach, Germany) and a mixture of 125 nM bio-NAD (Biolog, Life science Inst., Bremen, Germany) and 800 nM NAD as co-substrate are incubated in a total volume of 6 μl (100 mM Tris/HCl, 4 mM Mg-chloride, 0.01% IGEPAL® CA630, 1 mM DTT, 0.5% DMSO, pH 8, 13 ng/μl activated DNA (BPS Bioscience, San Diego, US)) in the absence or presence of the test compound (10 dilution concentrations) for 150 min at 23° C. The reaction is stopped by the addition of 4 μl of the Stop/detection solution (70 nM SA-Xlent® (Cisbio, Codolet, France), 2.5 nM Anti-His-K® (Eu-labelled anti-His, Cisbio, Codolet, France) in 50 mM HEPES, 400 mM KF, 0.1% BSA, 20 mM EDTA, pH 7.0). After 1 h incubation at room temperature the HTRF iss measured with an Envision multimode reader (Perkin Elmer LAS Germany GmbH) at excitation wavelength 340 nm (laser mode) and emission wavelengths 615 nm and 665 nm. The ratio of the emission signals is determined. The full value used is the inhibitor-free reaction. The pharmacological zero value used is Olaparib (LClabs, Woburn, US) in a final concentration of 1 μM. The inhibitory values (IC50) are determined using either the program Symyx Assay Explorer® or Condosseo® from GeneData.

T1 sequence (O95271 1023-1327): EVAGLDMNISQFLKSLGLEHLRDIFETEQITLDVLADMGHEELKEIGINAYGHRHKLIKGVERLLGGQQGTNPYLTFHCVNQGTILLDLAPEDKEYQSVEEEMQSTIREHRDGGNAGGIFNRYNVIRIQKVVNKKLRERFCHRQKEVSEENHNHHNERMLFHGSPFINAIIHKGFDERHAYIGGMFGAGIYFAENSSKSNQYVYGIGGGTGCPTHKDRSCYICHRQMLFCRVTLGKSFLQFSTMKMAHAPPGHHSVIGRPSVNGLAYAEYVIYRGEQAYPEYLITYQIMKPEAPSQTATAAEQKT

On to `Cc1cccc(N(C)C(=O)N2CCC(C(=O)c3ccccc3)CC2)c1` [Compound A1, 4-benzoyl-piperidine-1-carboxylic acid methyl-m-tolyl-amide], for which the results for the concentration for half-maximal inhibition (IC50) (in test [1]; at His-tagged Parp-1) were 0.3 to 3 µM and 3 to 50 µM, respectively.

For the compound `Cc1ccc(N(C)C(=O)N2CCC(C(=O)c3ccccc3)CC2)cc1` [Compound A2, 4-benzoyl-piperidine-1-carboxylic acid methyl-p-tolyl-amide], the half-inhibitory concentration (IC50) in test [1] fell in the range of 0.3 to 3 µM; on His-tagged Parp-1, 3 to 50 µM.

In the case of `COc1ccc(N(C)C(=O)N2CCC(C(=O)c3ccccc3)CC2)cc1` [Compound A4, 4-benzoyl-piperidine-1-carboxylic acid (4-methoxy-phenyl)-methyl-amide], the IC50 in test [1] lay in the range of 0.3 to 3 µM; on His-tagged Parp-1 it was 3 to 50 µM.

Regarding `COc1ccc(N(C)C(=O)N2CCC(C(=O)c3ccc(C)cc3)CC2)cc1` [Compound A5, 4-(4-methyl-benzoyl)-piperidine-1-carboxylic acid (4-methoxy-phenyl)-methylamide], the half-inhibitory concentration (IC50) is below 0.3 µM in test [1] and 3 to 50 µM against His-tagged Parp-1.

In the case of `COc1ccc(C(=O)C2CCN(C(=O)N(C)c3ccc(OC)cc3)CC2)cc1` [Compound A6, 4-(4-methoxy-benzoyl)-piperidine-1-carboxylic acid (4-methoxy-phenyl)methyl-amide], the IC50 in test [1] was below 0.3 µM; at His-tagged Parp-1 it was 3 to 50 µM.

Take `COc1ccc(N(C)C(=O)N2CCC(C(=O)c3cccc(F)c3)CC2)cc1` [Compound A7, 4-(3-fluoro-benzoyl)-piperidine-1-carboxylic acid (4-methoxy-phenyl)-methylamide]: the concentration for half-maximal inhibition (IC50) lay in the range of 0.3 to 3 µM in test [1] and 3 to 50 µM at His-tagged Parp-1.

As for `COc1ccc(N(C)C(=O)N2CCC(C(=O)c3ccc(F)cc3)CC2)cc1` [Compound A8, 4-(4-fluoro-benzoyl)-piperidine-1-carboxylic acid (4-methoxy-phenyl)-methylamide], the IC50 lay within 0.3 to 3 µM in test [1] and 3 to 50 µM at His-tagged Parp-1.

As for `CN(C(=O)N1CCC(C(=O)c2ccccc2)CC1)c1ccc(F)cc1` [Compound A13, 4-benzoyl-piperidine-1-carboxylic acid (4-fluoro-phenyl)-methyl-amide], the IC50 was 0.3 to 3 µM in test [1] and 3 to 50 µM on His-tagged Parp-1.

Consider `CCN(C(=O)N1CCC(C(=O)c2ccccc2)CC1)c1ccc(OC)cc1` [Compound A14, 4-benzoyl-piperidine-1-carboxylic acid ethyl-(4-methoxy-phenyl)-amide], for which the IC50 was below 0.3 µM in test [1] and 3 to 50 µM against His-tagged Parp-1.

For the compound `COc1ccc(N(CCO)C(=O)N2CCC(C(=O)c3ccccc3)CC2)cc1` [Compound A15, 4-benzoyl-piperidine-1-carboxylic acid (2-hydroxy-ethyl)-(4-methoxy-phenyl)amide], the IC50 fell in the range of 0.3 to 3 µM in test [1] and 3 to 50 µM against His-tagged Parp-1.

As to `O=C(c1ccccc1)C1CCN(C(=O)N2CCc3ccccc32)CC1` [Compound A16, (4-benzoyl-piperidin-1-yl)-(2,3-dihydro-indol-1-yl)-methanone], the figures for the IC50 (in test [1]; at His-tagged Parp-1) were 0.3 to 3 µM and 3 to 50 µM, respectively.

In the case of `Cc1ccc(C(=O)C2CCN(C(=O)N3CCc4ccccc43)CC2)cc1` [Compound A17, (2,3-dihydro-indol-1-yl)-[4-(4-methyl-benzoyl)-piperidin-1-yl]-methanone], the concentration for half-maximal inhibition (IC50) was in the range of 0.3 to 3 µM in test [1] and 3 to 50 µM at His-tagged Parp-1.

As to `COc1ccc(C(=O)C2CCN(C(=O)N3CCc4ccccc43)CC2)cc1` [Compound A18, (2,3-dihydro-indol-1-yl)-[4-(4-methoxy-benzoyl)-piperidin-1-yl]-methanone], the IC50 was 0.3 to 3 µM in test [1] and 3 to 50 µM against His-tagged Parp-1.

As for `CCN(C(=O)N1CCC(C(=O)c2ccc(OC)c(C)c2)CC1)c1ccc(OC)cc1` [Compound A24, 4-(4-methoxy-3-methyl-benzoyl)-piperidine-1-carboxylic acid ethyl-(4-methoxy-phenyl)-amide], the half-maximal inhibitory concentration (IC50) in test [1] was below 0.3 µM; against His-tagged Parp-1, 3 to 50 µM.

With `COc1ccc(N(C)C(=O)N2CCC(C(=O)c3cccc(C)c3)CC2)cc1` [Compound A25, 4-(3-methyl-benzoyl)-piperidine-1-carboxylic acid (4-methoxy-phenyl)methyl-amide], the IC50 is below 0.3 µM in test [1] and 3 to 50 µM against His-tagged Parp-1.

In the case of `CCN(C(=O)N1CCC(C(=O)c2cccc(C)c2)CC1)c1ccc(OC)cc1` [Compound A26, 4-(3-methyl-benzoyl)-piperidine-1-carboxylic acid ethyl-(4-methoxy-phenyl)amide], the IC50 in test [1] is below 0.3 µM; on His-tagged Parp-1, 3 to 50 µM.

For `COc1ccc(N(C)C(=O)N2CCC(C(=O)c3cccc(OC)c3)CC2)cc1` [Compound A27, 4-(3-methoxy-benzoyl)-piperidine-1-carboxylic acid (4-methoxy-phenyl)methyl-amide], the IC50 was below 0.3 µM in test [1] and 3 to 50 µM against His-tagged Parp-1.

With `CCN(C(=O)N1CCC(C(=O)c2cccc(OC)c2)CC1)c1ccc(OC)cc1` [Compound A28, 4-(3-methoxy-benzoyl)-piperidine-1-carboxylic acid ethyl-(4-methoxy-phenyl)amide], the IC50 in test [1] was below 0.3 µM; on His-tagged Parp-1 it was 3 to 50 µM.

At His-tagged Parp-1, `COc1ccc(N(C)C(=O)N2CCC(C(=O)c3ccc(OC)c(F)c3)CC2)cc1` [Compound A29, 4-(3-fluoro-4-methoxy-benzoyl)-piperidine-1-carboxylic acid (4-methoxy-phenyl)-methyl-amide] registered an IC50 of 3 to 50 µM.

Regarding `CN(C(=O)N1CCC(C(=O)c2ccc(NS(C)(=O)=O)cc2)CC1)c1ccccc1` [Compound A38, 4-(4-methanesulfonylamino-benzoyl)-piperidine-1-carboxylic acid methyl-phenyl-amide], the IC50 in test [1] is below 0.3 µM; against His-tagged Parp-1, 3 to 50 µM.

Take `CCOC(=O)CN(C(=O)N1CCC(C(=O)c2ccc(OC)cc2)CC1)c1ccccc1` [Compound A40, {[4-(4-methoxy-benzoyl)-piperidine-1-carbonyl]-phenyl-amino}-acetic acid ethyl ester]: the half-maximal inhibitory concentration (IC50) was below 0.3 µM in test [1] and 3 to 50 µM against His-tagged Parp-1.

What is called IC50 is the point on the concentration scale where inhibition reaches its midpoint.
